In assay [1] the target is LXR α LBD protein (Homo sapiens (Human), UniProt Q13133). Kind of assay: LXR α radioligand binding assay (SPA, competition with [3H]TO901317). Conditions: read-out: LXRα Binding Ki.
Assay [2] has as its target LXR β LBD protein (Homo sapiens (Human), UniProt P55055). Kind of assay: biochemical. The format is binding.
The target in assay [3] is Gal4 DNA binding domain fused to the LBD of LXRα in HEK293 cells (Homo sapiens (Human), UniProt Q13133). Kind of assay: LXR luciferase transcriptional reporter gene assay, agonist mode, LXRα. The format is cell-based. Conditions: for EC50: read-out: Cell LXRα EC50.
For assay [4], the target named is Gal4 DNA binding domain fused to the LBD of LXRβ in HEK293 cells (Homo sapiens (Human), UniProt P55055). Kind of assay: cell-based.
The mark [5] stands for this setting: Biological Test Example 1, read-out: LXRβ Binding Ki.
The mark [6] stands for this setting: Biological Test Example 2, agonist mode.
Setting [7] is: Biological Test Example 2, agonist mode, read-out: Cell LXRβ EC50.

Ten compounds from patent publication US10144715B2, “Piperazine derivatives as liver X receptor modulators” (priority 2014, dated 2018) can be followed below.

Molecules are shown by their SMILES. Read-outs that look alike come from different tables or passages of the source.

LXR α LBD protein, sequence (Q13133 209-447): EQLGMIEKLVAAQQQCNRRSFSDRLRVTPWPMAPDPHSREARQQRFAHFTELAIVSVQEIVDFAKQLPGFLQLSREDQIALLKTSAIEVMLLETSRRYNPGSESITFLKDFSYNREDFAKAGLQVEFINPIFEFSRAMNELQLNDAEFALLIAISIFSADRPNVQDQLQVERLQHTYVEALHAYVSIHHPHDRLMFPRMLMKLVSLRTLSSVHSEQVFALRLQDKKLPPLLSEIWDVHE
Gal4 DNA binding domain fused to the LBD of LXRα in HEK293 cells, sequence (Q13133 209-447): as above
LXR β LBD protein, sequence (P55055 222-460 limits assumed): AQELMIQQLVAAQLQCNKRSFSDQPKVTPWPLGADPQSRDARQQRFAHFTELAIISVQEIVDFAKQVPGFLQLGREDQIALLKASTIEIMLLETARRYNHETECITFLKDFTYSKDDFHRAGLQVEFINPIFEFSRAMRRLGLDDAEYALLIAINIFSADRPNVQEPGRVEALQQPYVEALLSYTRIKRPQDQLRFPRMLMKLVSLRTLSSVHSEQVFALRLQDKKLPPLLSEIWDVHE
Gal4 DNA binding domain fused to the LBD of LXRβ in HEK293 cells, sequence (P55055 222-460 limits assumed): as above

In the case of `CS(=O)(=O)c1cccc(N2CCN(CC3(F)CCN(CC(F)(F)F)CC3)[C@H](c3ccccc3)C2)c1` (single isomer, unassigned) [48-54], the Ki is over 3330 nM in assay [1] and 2390 nM in assay [2] (setting [5]). Besides, the EC50 in assay [3] (setting [6]) and in assay [4] was over 20000 nM in each case.

As to `CS(=O)(=O)c1cccc(N2CCN(CC3CCN(CC(F)(F)F)CC3)[C@@H](c3ccccc3Cl)C2)c1` (single isomer, unassigned) [48-55], the Ki in assay [1] turned out to be 277 nM. Besides, in assay [2] (read-out: LXRβ Binding Ki), the Ki stood at 67 nM. In addition, in assay [3], the “Cell LXRα efficacy” value was 2129 (42) % and the EC50 worked out at 2130 nM. In assay [4], the “Cell LXRβ efficacy” value was 547 (19) % and the EC50 is 547 nM.

Regarding `CC(C)[C@H]1CC[C@H](CN2CCN(c3ccc(CO)c(S(C)(=O)=O)c3)C[C@@H]2c2ccccc2)CC1` (single isomer, unassigned) [48-77], the values for the Ki in assay [1] and in assay [2] (setting [5]) were 131 nM and 23 nM, respectively. Besides, the “Cell LXRα efficacy” value in assay [3] is listed as 789 (53) %. Also, the results for the EC50 in assay [3] and in assay [4] (setting [7]) were 789 nM and 360 nM, respectively. Further, the “Cell LXRβ efficacy” value in assay [4] (setting [6]) amounted to 23%.

Take `CC(C)[C@H]1CC[C@H](CN2CCN(c3ccc(CO)c(S(C)(=O)=O)c3)C[C@H]2c2ccccc2)CC1` (single isomer, unassigned) [48-78]: the Ki in assay [1] was 30700 nM; in assay [2] (setting [5]) it was 2460 nM. Moreover, the “Cell LXRα efficacy” value in assay [3] is 10997 (14) %. The EC50 in assay [3] was 11000 nM; in assay [4] (setting [7]) it was 8340 nM. For the same compound, the “Cell LXRβ efficacy” value in assay [4] (setting [6]) was determined as 10%.

Turning to `NS(=O)(=O)c1cccc(N2CCN(CC3CCN(CC(F)(F)F)CC3)[C@@H](c3ccccc3)C2)c1` (single isomer, unassigned) [48-81], the Ki in assay [1] turned out to be 2300 nM; in assay [2] (setting [5]), 479 nM. Besides, the “Cell LXRα efficacy” value in assay [3] is listed as 1964 (37) %. For the same compound, the EC50 in assay [3] (setting [6]) stood at 1960 nM; in assay [4], 822 nM. The “Cell LXRβ efficacy” value in assay [4] (setting [6]) was 822 (9) %.

Take `NS(=O)(=O)c1cccc(N2CCN(CC3CCN(CC(F)(F)F)CC3)[C@H](c3ccccc3)C2)c1` (single isomer, unassigned) [48-82]: the values for the inhibitory constant (Ki) in assay [1] and in assay [2] (setting [5]) were 7400 nM and 2490 nM, respectively. Also, the 50% effective concentration (EC50) in assay [3] (setting [6]) and in assay [4] was over 20000 nM throughout.

With `CS(=O)(=O)c1cccc(N2CCN(C[C@H]3CC[C@@H](C(F)(F)F)OC3)[C@@H](c3ccc(F)cc3)C2)c1` (single isomer, unassigned) [49-9], the Ki in assay [1] was 1210 nM; in assay [2], 150 nM. For the same compound, the “Cell LXRα efficacy” value in assay [3] is 1643 (32) %. Further, the EC50 was 1640 nM in assay [3] and 575 nM in assay [4]. For the same compound, the “Cell LXRβ efficacy” value in assay [4] (setting [6]) is reported as 575 (23) %.

On to `CS(=O)(=O)c1cccc(N2CCN(C[C@H]3CCC(C(F)(F)F)OC3)[C@@H](c3ccc(F)cc3)C2)c1` (single isomer, unassigned) [49-10], for which the Ki is 438 nM in assay [1] and 53 nM in assay [2]. Also, in assay [3], the “Cell LXRα efficacy” value is 1575 (67) %. Also, the results for the EC50 in assay [3] and in assay [4] were 1570 nM and 376 nM, respectively. Besides, the “Cell LXRβ efficacy” value in assay [4] (setting [6]) is 376 (37) %.

In the case of `CS(=O)(=O)c1cccc(N2CCN(C[C@@H]3CCC(C(F)(F)F)OC3)[C@@H](c3ccc(F)cc3)C2)c1` (single isomer, unassigned) [49-12], the Ki in assay [1] is 1770 nM; in assay [2] it was 184 nM. The “Cell LXRα efficacy” value in assay [3] is recorded as 2637 (51) %. Besides, the EC50 worked out at 2640 nM in assay [3] and 522 nM in assay [4]. In assay [4] (setting [6]), the “Cell LXRβ efficacy” value is listed as 522 (25) %.

Take `CS(=O)(=O)c1cc(N2CCN(C[C@H]3CC[C@@H](C(F)(F)F)CC3)[C@H](c3ccccc3)C2)ccc1C#N` (single isomer, unassigned) [50-5]: the inhibition constant Ki was found to be 6550 nM in assay [1] and 688 nM in assay [2] (setting [5]). The “Cell LXRα efficacy” value in assay [3] was 10000 (7) %. For the same compound, the EC50 in assay [3] amounted to 10000 nM; in assay [4] (setting [7]), 997 nM. Besides, the “Cell LXRβ efficacy” value in assay [4] (setting [6]) is 11%.
